Patent US11066414B2, “Cot modulators and methods of use thereof” (Gilead Sciences, Inc., priority 2015, dated 2021)
Like-named read-outs stand apart in the source and are kept apart here.

Key:
TNFα = assay: Cot Monocyte TNFα Cell Based Assay
Human Cot = Human Cot (Homo sapiens (Human), UniProt P41279); assay: High Throughput Cot Biochemical Assay
[1] = Homo sapiens, Monocyte, read-out: EC50 TNF, LPS-stimulated human monocytes, TNFα
[2] = IC50 HTRF, Cot HTRF (TR-FRET) biochemical assay
[3] = read-out: EC50 TNF, LPS-stimulated human monocytes, TNFα TR-FRET
[4] = read-out: IC50 HTRF, Cot HTRF (TR-FRET KinEASE) biochemical assay, 400 μM ATP
[5] = Homo sapiens, Monocyte, read-out: EC50 TNF, LPS-stimulated human monocytes, TNFα TR-FRET
[6] = IC50 HTRF, Cot HTRF (TR-FRET KinEASE) biochemical assay, 400 μM ATP

Chain of Human Cot (P41279 30-397): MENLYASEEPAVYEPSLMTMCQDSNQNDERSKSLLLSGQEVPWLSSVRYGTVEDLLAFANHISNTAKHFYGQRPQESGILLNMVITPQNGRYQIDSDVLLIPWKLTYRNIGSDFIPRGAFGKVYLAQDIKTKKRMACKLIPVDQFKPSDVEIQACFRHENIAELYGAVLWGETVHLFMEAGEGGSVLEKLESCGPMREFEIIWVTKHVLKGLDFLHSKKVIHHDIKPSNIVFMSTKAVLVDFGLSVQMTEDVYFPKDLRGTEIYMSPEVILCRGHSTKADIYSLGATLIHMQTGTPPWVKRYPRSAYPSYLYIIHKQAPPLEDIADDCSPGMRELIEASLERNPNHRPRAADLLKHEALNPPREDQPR

SMILES	EC50 (TNFα; [1]) [nM]	IC50 (Human Cot; [2]) [nM]	further results
CN(C)CCCn1cc([C@@H](Nc2cc(Cl)c3ncc(C#N)c(Nc4ccc(F)c(Cl)c4)c3c2)c2cscn2)nn1 [Example 360, (S)-8-chloro-4-((3-chloro-4-fluorophenyl)amino)-6-(((1-(3-(dimethylamino)propyl)-1H-1,2,3-triazol-4-yl)(thiazol-4-yl)methyl)-amino)quinoline-3-carbonitrile]	151	4	
Cc1nc(F)ccc1[C@H](Nc1cc(C#N)c2ncc(C#N)c(NCC(C)(C)C)c2c1)c1cn(C2(C#N)CC2)nn1 [Example 489, (S)-6-(((1-(1-cyanocyclopropyl)-1H-1,2,3-triazol-4-yl)(6-fluoro-2-methylpyridin-3-yl)methyl)amino)-4-(neopentylamino)-quinoline-3,8-dicarbonitrile]	129	2	
Cc1nc([C@H](Nc2cc(Cl)c3ncc(C#N)c(Nc4ccc(F)c(Cl)c4)c3c2)c2cn(C3CCN(C(C)(C)C)CC3)nn2)c(C)o1 [Example 262, (S)-6-(((1-(1-(tert-butyl)piperidin-4-yl)-1H-1,2,3-triazol-4-yl)(2,5-dimethyloxazol-4-yl)methyl)amino)-8-chloro-4-((3-chloro-4-fluorophenyl)amino)quinoline-3-carbonitrile]	130	11	
Cc1ncccc1[C@H](Nc1cc(Cl)c2ncc(C#N)c(N[C@H](C)c3ccccc3)c2c1)c1cn(C(C)C)nn1 [Example 230, 8-chloro-6-(((S)-(1-isopropyl-1H-1,2,3-triazol-4-yl)(2-methylpyridin-3-yl)methyl)amino)-4-(((R)-1-phenylethyl)amino)quinoline-3-carbonitrile]	252	9	
CC(C)(C)n1cc([C@@H](Nc2cc(Cl)c3ncc(C#N)c(Nc4cnc(F)c(F)c4)c3c2)c2cccnc2)nn1 [Example 198, (S)-6-(((1-(tert-butyl)-1H-1,2,3-triazol-4-yl)(pyridin-3-yl)methyl)amino)-8-chloro-4-((5,6-difluoropyridin-3-yl)amino)quinoline-3-carbonitrile]	982	17	
CC(C)(C)CNc1c(C#N)cnc2c(C#N)cc(N[C@H](c3cn(C4(C(N)=O)CC4)nn3)c3cccc4cnccc34)cc12 [Example 586, (S)-1-(4-(((3,8-dicyano-4-(neopentylamino)-quinolin-6-yl)atnino)(isoquinolin-5-yl)methyl)-1H-1,2,3-triazol-yl)cyclopropane-1-carboxamide]			EC50 (TNFα; read-out: EC50 TNF, LPS-stimulated human monocytes, TNFα): 1000 nM; IC50 (Human Cot; read-out: IC50 HTRF, Cot HTRF (TR-FRET) biochemical assay): 2 nM
COc1nccc2c([C@H](Nc3cc(Cl)c4ncc(C#N)c(NCC(C)(C)C(F)(F)F)c4c3)c3cn(C4(C)CC4)nn3)cccc12 [Example 927, (S)-8-chloro-6-(((1-methoxylsoquinolin-5-yl)(1-(1-methylcyclopropyl)-1H-1,2,3-triazol-4-yl)methyl)amino)-4-((3,3,3-trifluoro-2,2-dimethylpropyl)amino)quinoline-3-carbonitrile]			EC50 (TNFα; [3]): 124 nM; IC50 (Human Cot; [4]): 6 nM
Cc1nc(F)ccc1[C@H](Nc1cc(Cl)c2ncc(C#N)c(NCC(C)(C)C)c2c1)c1cn(CCCO)nn1 [Example 986, (S)-8-chloro-6-(((6-fluoro-2-methylpyridin-3-yl)(1-(3-hydroxypropyl)-1H-1,2,3-triazol-4-yl)methyl)amino)-4-(neopentylamino)quinoline-3-carbonitrile]			EC50 (TNFα; [5]): 141 nM; IC50 (Human Cot; [6]): 5 nM
N#Cc1cnc2c(Cl)cc(N[C@H](c3c[nH]nn3)c3cccnc3F)cc2c1Nc1cnc(F)c(F)c1 [Example 151, (S)-8-chloro-4-((5,6-difluoropyridin-3-yl)amino)-6-(((2-fluoropyridin-3-yl)(1H-1,2,3-triazol-4-yl)methyl)amino)quinoline-3-carbonitrile]	1300	8	
Cn1ncc2c([C@H](Nc3cc(C#N)c4ncc(C#N)c(NCC(C)(C)C)c4c3)c3cn(C4CC4)nn3)cccc21 [Example 609, (S)-6-(((1-cyclopropyl-1H-1,2,3-triazol-4-yl)(1-methyl-1H-indazol-4-yl)methyl)amino)-4-(neopentylamino)quinoline-3,8-dicarbonitrile]	46	2	
COc1nccc2c([C@H](Nc3cc(C#N)c4ncc(C#N)c(NCC(C)(C)C)c4c3)c3cn(C4(C(F)F)CC4)nn3)cccc12 [Example 810, (S)-6-(((1-(1-(difluoromethyl)-cyclopropyl)-1H-1,2,3-triazol-4-yl)(1-methoxylsoquinolin-5-yl)methyl)amino)-4-(neopentylamino)quinoline-3,8-dicarbonitrile]			EC50 (TNFα; [3]): 54 nM; IC50 (Human Cot; [4]): 4 nM
CC(C)(C)CNc1c(C#N)cnc2c(Cl)cc(N[C@H](c3cn(C4(C(F)(F)F)CC4)nn3)c3cccc4[nH]c(C(F)(F)F)nc34)cc12 [Example 972, (S)-8-chloro-4-(neopentylamino)-6-(((2-(trifluoromethyl)-1H-benzo[d]imidazol-4-yl)(1-(1-(trifluoromethyl)cyclopropyl)-1H-1,2,3-triazol-4-yl)methyl)amino)quinoline-3-carbonitrile]			EC50 (TNFα; [5]): 1000 nM; IC50 (Human Cot; [6]): 1820 nM
Cc1nc(F)ccc1[C@H](Nc1cc(Cl)c2ncc(C#N)c(NCC(C)(C)C)c2c1)c1cn(C2(C)COC2)nn1 [Example 759, (S)-8-chloro-6-(((6-fluoro-2-methylpyridin-3-yl)(1-(3-methyloxetan-3-yl)-1H-1,2,3-triazol-4-yl)methyl)amino)-4-(neopentylamino)quinoline-3-carbonitrile]	42	2	
Cc1nc(F)ccc1[C@H](Nc1cc(Cl)c2ncc(C#N)c(NCC(C)(C)C(F)(F)F)c2c1)c1cn(C2(C(F)F)CC2)nn1 [Example 727, (S)-8-chloro-6-(((1-(1-(difluoromethyl)cyclopropyl)-1H-1,2,3-triazol-4-yl)(6-fluoro-2-methylpyridin-3-yl)methyl)amino)-4-((3,3,3-trifluoro-2,2-dimethylpropyl)amino)quinoline-3-carbonitrile]	48	3	
Cn1ccc2c([C@H](Nc3cc(Cl)c4ncc(C#N)c(NCC(C)(C)C)c4c3)c3cn(C4(C)COC4)nn3)cccc2c1=O [Example 760, (S)-8-chloro-6-(((2-methyl-1-oxo-1,2-dihydroisoquinolin-5-yl)(1-(3-methyloxetan-3-yl)-1H-1,2,3-triazol-4-yl)methyl)amino)-4-(neopentylamino)quinoline-3-carbonitrile]	58	2	
CCN1Cc2cccc([C@H](Nc3cc(Cl)c4ncc(C#N)c(Nc5ccc(F)c(Cl)c5)c4c3)c3c[nH]nn3)c2C1 [Example 54, (S)-8-chloro-4-((3-chloro-4-fluorophenyl)amino)-6-(((2-ethylisoindolin-4-yl)(1H-1,2,3-triazol-4-yl)methyl)amino)quinoline-3-carbonitrile]	652	11	

Continued, in another order:

EC50 (TNFα; [1]) [nM]	IC50 (Human Cot; [2]) [nM]	SMILES	further results
95	2	[2H][C@](Nc1cc(Cl)c2ncc(C#N)c(N[C@H](CC)c3ccccc3)c2c1)(c1cccnc1)c1cn(C2CC2)nn1 [Example 159, 8-chloro-6-(((S)-(1-cyclopropyl-1H-1,2,3-triazol-4-yl)(pyridin-3-yl)methyl-d)amino)-4-(((R)-1-phenylpropyl)amino)quinoline-3-carbonitrile]	
19	1	CC(C)(C)CNc1c(C#N)cnc2c(Cl)cc(N[C@H](c3cn(C4CC4)nn3)c3cccc4cnccc34)cc12 [Example 443, (S)-8-chloro-6-(((1-cyclopropyl-1H-1,2,3-triazol-4-yl)(isoquinolin-5-yl)methyl)amino)-4-(neopentylamino)quinoline-3-carbonitrile]	
433	2	CC(C)(C)CNc1c(C#N)cnc2c(Cl)cc(N[C@H](c3cn(C4(C(N)=O)CC4)nn3)c3cccc4cnccc34)cc12 [Example 561, (S)-1-(4-(((8-chloro-3-cyano-4-(neopentylamino)quinolin-6-yl)amino) (isoquinolin-5-yl)methyl)-1H-1,2,3-triazol-1-yl)cyclopropane-1-carboxamide]	
68	4	[2H]c1c([C@@H](Nc2cc(Cl)c3ncc(C#N)c(NCC(C)(C)C)c3c2)c2ccc(F)nc2C)nnn1C1(C(F)(F)F)CC1 [Example 549, (S)-8-chloro-6-(((6-fluoro-2-methylpyridin-3-yl)(1-(1-(trifluoromethyl)cyclopropyl)-1H-1,2,3-triazol-4-yl-5-d)methyl)amino)-4-(neopentylamino)quinoline-3-carbonitrile]	
66	2	CC(C)(C)CNc1c(C#N)cnc2c(Cl)cc(N[C@H](c3cn(C4(C#N)CC4)nn3)c3cccc4ncccc34)cc12 [Example 567, (S)-8-chloro-6-(((1-(1-cyanocyclopropyl)-1H-1,2,3-triazol-4-yl)(quinolin-5-yl)methyl)amino)-4-(neopentylamino)-quinoline-3-carbonitrile]	
242	22	Cc1nc(F)ccc1C(Nc1cc(Cl)c2ncc(C#N)c(NCC(C)(C)C)c2c1)c1cn(C)nn1 (stereo not shown) [Example 791, 8-chloro-6-(((6-fluoro-2-methylpyridin-3-yl)(1-methyl-1H-1,2,3-triazol-4-yl)methyl)amino)-4-(neopentylamino)quinoline-3-carbonitrile]	
79	2	[2H][C@](Nc1cc(Cl)c2ncc(C#N)c(N[C@H](CC)c3ccccc3)c2c1)(c1ccc(F)nc1)c1cn(C2CC2)nn1 [Example 155, 8-chloro-6-(((S)-(1-cyclopropyl-1H-1,2,3-triazol-4-yl)(6-fluoropyridin-3-yl)methyl-d)amino)-4-(((R)-1-phenylpropyl)amino)quinoline-3-carbonitrile]	
